Experimental data as given in ChEMBL document CHEMBL3046557, “Synthesis, biological evaluation, and molecular modeling studies of novel heterocyclic compounds as anti-proliferative agents” (2013).

Tests used:
Assay type in all cases: functional
[1] = system: M14; assay: Cytotoxicity against human M14 after 48 hrs by SRB assay; settings: M14, 48 h
[2] = system: HCT-116; assay: Cytotoxicity against human HCT116 after 48 hrs by SRB assay; settings: HCT-116, 48 h
[3] = system: 786-0; assay: Cytotoxicity against human 786-0 after 48 hrs by SRB assay; settings: 786-0, 48 h
[4] = system: SF-268; assay: Cytotoxicity against human SF268 after 48 hrs by SRB assay; settings: SF-268, 48 h
[5] = system: SK-MEL-28; assay: Cytotoxicity against human SK-MEL-28 after 48 hrs by SRB assay; settings: SK-MEL-28, 48 h
[6] = system: TK-10; assay: Cytotoxicity against human TK10 after 48 hrs by SRB assay; settings: TK-10, 48 h
[7] = system: LOX IMVI; assay: Cytotoxicity against human LOXIMVI after 48 hrs by SRB assay
[8] = system: CAKI-1; assay: Cytotoxicity against human Caki1 after 48 hrs by SRB assay; settings: CAKI-1, 48 h
[9] = system: UACC-62; assay: Cytotoxicity against human UACC62 after 48 hrs by SRB assay; settings: UACC-62, 48 h
[10] = system: MOLT-4; assay: Cytotoxicity against human MOLT4 after 48 hrs by SRB assay; settings: MOLT-4, 48 h
[11] = system: EKVX; assay: Cytotoxicity against human EKVX after 48 hrs by SRB assay
[12] = system: NCI-H322M; assay: Cytotoxicity against human NCI-H322M after 48 hrs by SRB assay
[13] = system: Malme-3M; assay: Cytotoxicity against human MALME-3M after 48 hrs by SRB assay
[14] = system: HT-29; assay: Cytotoxicity against human HT-29 after 48 hrs by SRB assay; settings: HT-29, 48 h
[15] = system: K562; assay: Cytotoxicity against human K562 after 48 hrs by SRB assay; settings: K562, 48 h
[16] = system: COLO 205; assay: Cytotoxicity against human COLO205 after 48 hrs by SRB assay; settings: COLO 205, 48 h
[17] = system: HOP-62; assay: Cytotoxicity against human HOP62 after 48 hrs by SRB assay; settings: HOP-62, 48 h
[18] = system: NCI-H522; assay: Cytotoxicity against human NCI-H522 after 48 hrs by SRB assay; settings: NCI-H522, 48 h
[19] = system: SNB-19; assay: Cytotoxicity against human SNB19 after 48 hrs by SRB assay; settings: SNB-19, 48 h
[20] = system: MDA-MB-435; assay: Cytotoxicity against human MDA-MB-435 after 48 hrs by SRB assay; settings: MDA-MB-435, 48 h
[21] = system: OVCAR-4; assay: Cytotoxicity against human OVCAR4 after 48 hrs by SRB assay; settings: OVCAR-4, 48 h
[22] = system: RXF 393; assay: Cytotoxicity against human RXF393 after 48 hrs by SRB assay; settings: RXF 393, 48 h
[23] = system: RPMI-8226; assay: Cytotoxicity against human RPMI8226 after 48 hrs by SRB assay; settings: RPMI-8226, 48 h
[24] = system: NCI-H460; assay: Cytotoxicity against human NCI-H460 after 48 hrs by SRB assay; settings: NCI-H460, 48 h
[25] = system: OVCAR-3; assay: Cytotoxicity against human OVCAR3 after 48 hrs by SRB assay; settings: OVCAR-3, 48 h
[26] = system: SK-MEL-2; assay: Cytotoxicity against human SK-MEL-2 after 48 hrs by SRB assay; settings: SK-MEL-2, 48 h
[27] = system: OVCAR-8; assay: Cytotoxicity against human OVCAR8 after 48 hrs by SRB assay; settings: OVCAR-8, 48 h
[28] = system: SR; assay: Cytotoxicity against human SR after 48 hrs by SRB assay
[29] = system: SN12C; assay: Cytotoxicity against human SN12C after 48 hrs by SRB assay
[30] = system: PC-3; assay: Cytotoxicity against human PC3 after 48 hrs by SRB assay; settings: PC-3, 48 h
[31] = system: UACC-257; assay: Cytotoxicity against human UACC257 after 48 hrs by SRB assay; settings: UACC-257, 48 h
[32] = system: DU-145; assay: Cytotoxicity against human DU145 after 48 hrs by SRB assay; settings: DU-145, 48 h
[33] = system: HCT-15; assay: Cytotoxicity against human HCT15 after 48 hrs by SRB assay; settings: HCT-15, 48 h
[34] = system: Hs-578T; assay: Cytotoxicity against human Hs 578T after 48 hrs by SRB assay
[35] = system: SK-MEL-5; assay: Cytotoxicity against human SK-MEL-5 after 48 hrs by SRB assay; settings: SK-MEL-5, 48 h
[36] = system: KM12; assay: Cytotoxicity against human KM12 after 48 hrs by SRB assay; settings: KM12, 48 h
[37] = system: A549; assay: Cytotoxicity against human A549 after 48 hrs by SRB assay; settings: A549, 48 h
[38] = system: HOP-92; assay: Cytotoxicity against human HOP92 after 48 hrs by SRB assay; settings: HOP-92, 48 h
[39] = system: T47D; assay: Cytotoxicity against human T47D after 48 hrs by SRB assay
[40] = system: UO-31; assay: Cytotoxicity against human UO31 after 48 hrs by SRB assay; settings: UO-31, 48 h
[41] = system: HCC 2998; assay: Cytotoxicity against human HCC2998 after 48 hrs by SRB assay; settings: HCC 2998, 48 h
[42] = system: SW-620; assay: Cytotoxicity against human SW620 after 48 hrs by SRB assay; settings: SW-620, 48 h
[43] = system: CCRF-CEM; assay: Cytotoxicity against human CCRF-CEM after 48 hrs by SRB assay
[44] = system: NCI-H226; assay: Cytotoxicity against human NCI-H226 after 48 hrs by SRB assay; settings: NCI-H226, 48 h
[45] = system: BT-549; assay: Cytotoxicity against human BT549 after 48 hrs by SRB assay; settings: BT-549, 48 h
[46] = Cytotoxicity against human NCI-ADR-RES after 48 hrs by SRB assay
[47] = system: MDA-MB-231; assay: Cytotoxicity against human MDA-MB-231 after 48 hrs by SRB assay; settings: MDA-MB-231, 48 h
[48] = system: SF-539; assay: Cytotoxicity against human SF539 after 48 hrs by SRB assay; settings: SF-539, 48 h
[49] = system: MCF7; assay: Cytotoxicity against human MCF7 after 48 hrs by SRB assay; settings: MCF7, 48 h
[50] = system: SK-OV-3; assay: Cytotoxicity against human SKOV3 after 48 hrs by SRB assay; settings: SK-OV-3, 48 h
[51] = system: ACHN; assay: Cytotoxicity against human ACHN after 48 hrs by SRB assay
[52] = system: OVCAR-5; assay: Cytotoxicity against human OVCAR5 after 48 hrs by SRB assay; settings: OVCAR-5, 48 h
[53] = system: SF-295; assay: Cytotoxicity against human SF295 after 48 hrs by SRB assay; settings: SF-295, 48 h
[54] = system: U-251; assay: Cytotoxicity against human U251 after 48 hrs by SRB assay; settings: U-251, 48 h
[55] = system: NCI-H23; assay: Cytotoxicity against human NCI-H23 after 48 hrs by SRB assay; settings: NCI-H23, 48 h
[56] = system: SNB-75; assay: Cytotoxicity against human SNB75 after 48 hrs by SRB assay; settings: SNB-75, 48 h

Q: What does the source list for `CC12CCC(C(CN3C(=O)C(=O)c4ccccc43)C1=O)C2(C)C` (configuration not stated)?
A: GI50 [1]: 15.9 µM; TGI [1]: 33.5 µM; GI50 [2]: 1.95 µM; TGI [2]: 3.76 µM; GI50 [3]: 16.8 µM; TGI [3]: 30.8 µM; GI50 [4]: 15.8 µM; TGI [4]: 36 µM; GI50 [5]: 19.7 µM; TGI [5]: 39.5 µM; GI50 [6]: 14.8 µM; TGI [6]: 28.5 µM; GI50 [7]: 10.4 µM; TGI [7]: 24.5 µM; GI50 [8]: 16.3 µM; TGI [8]: 31.3 µM; GI50 [9]: 16.2 µM; TGI [9]: 30.6 µM; GI50 [10]: 3.51 µM; TGI [10]: 10.6 µM; GI50 [11]: 19.6 µM; TGI [11]: 37.9 µM; GI50 [12]: 23.4 µM; TGI [12]: 38.3 µM; GI50 [13]: 26.9 µM; TGI [13]: 44.8 µM; GI50 [14]: 5.45 µM; TGI [14]: 20.4 µM; GI50 [15]: 2.46 µM; TGI [15]: 8.2 µM; GI50 [16]: 12.6 µM; TGI [16]: 29.2 µM; GI50 [17]: 15.6 µM; TGI [17]: 30.1 µM; GI50 [18]: 13.5 µM; TGI [18]: 29.4 µM; GI50 [19]: 13.8 µM; TGI [19]: 26.6 µM; GI50 [20]: 15.6 µM; TGI [20]: 32.9 µM; GI50 [21]: 18.8 µM; TGI [21]: 44.1 µM; GI50 [22]: 5.46 µM; TGI [22]: 16.9 µM; GI50 [23]: 3.22 µM; TGI [23]: 17.2 µM; GI50 [24]: 16.9 µM; TGI [24]: 36.5 µM; GI50 [25]: 15.6 µM; TGI [25]: 33.5 µM; GI50 [26]: 19 µM; TGI [26]: 41.7 µM; GI50 [27]: 2.86 µM; TGI [27]: 6.97 µM; GI50 [28]: 1.53 µM; TGI [28]: 4.02 µM; GI50 [29]: 15.3 µM; TGI [29]: 31.6 µM; GI50 [30]: 11.9 µM; TGI [30]: 25.9 µM; GI50 [31]: 13.9 µM; TGI [31]: 31.1 µM; GI50 [32]: 14.9 µM; TGI [32]: 28.1 µM; GI50 [33]: 17.1 µM; TGI [33]: 34.7 µM; GI50 [34]: 13.8 µM; TGI [34]: 32.6 µM; GI50 [35]: 17.3 µM; TGI [35]: 33 µM; GI50 [36]: 4.12 µM; TGI [36]: 12.5 µM; GI50 [37]: 16.9 µM; TGI [37]: 32.9 µM; GI50 [38]: 17.9 µM; TGI [38]: 38.3 µM; GI50 [39]: 20.6 µM; TGI [39]: 46.7 µM; GI50 [40]: 13.2 µM; TGI [40]: 26.2 µM; GI50 [41]: 13.5 µM; TGI [41]: 27.5 µM; GI50 [42]: 3.21 µM; TGI [42]: 9.25 µM; GI50 [43]: 7.46 µM; TGI [43]: 28.6 µM; GI50 [44]: 21.8 µM; TGI [44]: 61 µM; GI50 [45]: 12.3 µM; TGI [45]: 24.8 µM; GI50 [46]: 12.7 µM; TGI [46]: 35.3 µM; GI50 [47]: 15.1 µM; TGI [47]: 30 µM; GI50 [48]: 12.8 µM; TGI [48]: 25.8 µM; GI50 [49]: 5.8 µM; TGI [49]: 24.6 µM; GI50 [50]: 14.8 µM; TGI [50]: 28.5 µM; GI50 [51]: 16.2 µM; TGI [51]: 29.7 µM; GI50 [52]: 14.8 µM; TGI [52]: 28.4 µM; GI50 [53]: 11.1 µM; TGI [53]: 24.3 µM; GI50 [54]: 15.4 µM; TGI [54]: 29.3 µM; GI50 [55]: 14.5 µM; TGI [55]: 29.6 µM; GI50 [56]: 17.1 µM; TGI [56]: 33.1 µM
